Measured values as given in PubChem BioAssay (NCI).
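How tested: cells in 96-well plates exposed to compound for 48 hours at five concentrations. Abbreviation: GI50, concentration required for 50% inhibition of growth. TGI marks complete inhibition of growth.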

Tests used:
Assay in all cases: inhibition of tumour cell growth, NCI panel, 48 h
[1] = system: HOP-62 NSCLC
[2] = system: 786-0 renal
[3] = system: BT-549 breast
[4] = system: HCT-116 colon
[5] = system: TK-10 renal
[6] = system: RPMI-8226 leukemia
[7] = system: MALME-3M melanoma
[8] = system: HL-60(TB) leukemia
[9] = system: RXF 393 renal
[10] = system: OVCAR-5 ovarian
[11] = system: ACHN renal
[12] = system: SR leukemia
[13] = system: U251 CNS
[14] = system: NCI-H522 lung
[15] = system: T-47D breast
[16] = system: SNB-19 CNS
[17] = system: K-562 leukemia
[18] = system: HCC-2998 colon
[19] = system: SF-539 CNS
[20] = system: DU-145 prostate
[21] = system: SF-295 CNS
[22] = system: SN12C renal
[23] = system: OVCAR-4 ovarian
[24] = system: HT29 colon
[25] = system: HCT-15 colon
[26] = system: MCF7 breast
[27] = system: PC-3 prostate
[28] = system: CAKI-1 renal
[29] = system: CCRF-CEM leukemia
[30] = system: NCI-H226 lung
[31] = system: EKVX NSCLC
[32] = system: SK-MEL-2 melanoma
[33] = system: UACC-257 melanoma
[34] = system: NCI-H460 lung
[35] = system: SW-620 colon
[36] = system: OVCAR-3 ovarian
[37] = system: NCI-H23 lung
[38] = system: MOLT-4 leukemia
[39] = system: A549 NSCLC
[40] = system: SK-OV-3 ovarian
[41] = system: HOP-92 NSCLC
[42] = system: M14 melanoma
[43] = system: OVCAR-8 ovarian
[44] = system: HS 578T breast
[45] = system: COLO 205 colon
[46] = system: IGROV1 ovarian
[47] = system: NCI/ADR-RES ovarian
[48] = system: MDA-MB-231 breast
[49] = system: SK-MEL-5 melanoma
[50] = system: KM12 colon
[51] = system: SK-MEL-28 melanoma
[52] = system: LOX IMVI melanoma
[53] = system: SF-268 CNS
[54] = system: UO-31 renal
[55] = system: UACC-62 melanoma
[56] = system: A498 renal
[57] = system: SNB-75 CNS
[58] = system: MDA-MB-435

`CCN(C)S(=O)(=O)Nc1cccc(Nc2ncnc3cc(NC(=O)CCl)ccc23)c1Cl` was tested, and the GI50 [1] was 3420 nM, the TGI [1] was 7.73 µM and the GI50 [2] was 973 nM. For the same molecule, the TGI [2] was 4.04 µM, the GI50 [3] was 2540 nM and the TGI [3] was 6.66 µM. For the same molecule, the GI50 [4] was 1070 nM, the TGI [4] was 5.04 µM and the GI50 [5] was 4.64 µM. For the same molecule, the TGI [5] was 13.3 µM, the GI50 [6] was 1210 nM and the TGI [6] was 5.42 µM. It also gave a GI50 [7] of 1420 nM, a TGI [7] of 5.62 µM and a GI50 [8] of 4.74 µM. The TGI [8] was 11.3 µM, the GI50 [9] was 3570 nM and the TGI [9] was 7.42 µM. It also gave a GI50 [10] of 2620 nM, a TGI [10] of 6.76 µM and a GI50 [11] of 3380 nM. It also gave a TGI [11] of 7.67 µM, a GI50 [12] of 824 nM and a TGI [12] of 7.76 µM. The GI50 [13] was 611 nM, the TGI [13] was 1640 nM and the GI50 [14] was 693 nM. It also gave a TGI [14] of 2.03 µM, a GI50 [15] of 5.01 µM and a TGI [15] of 13.2 µM. It also gave a GI50 [16] of 2990 nM, a TGI [16] of 7.18 µM and a GI50 [17] of 1100 nM. It also gave a TGI [17] of over 25 µM, a GI50 [18] of 3.89 µM and a TGI [18] of 9.57 µM. The GI50 [19] was 3430 nM, the TGI [19] was 6.77 µM and the GI50 [20] was 3.69 µM. For the same molecule, the TGI [20] was 8.86 µM, the GI50 [21] was 3500 nM and the TGI [21] was 7.4 µM. It also gave a GI50 [22] of 1080 nM, a TGI [22] of 4.46 µM and a GI50 [23] of 3.53 µM. It also gave a TGI [23] of 8.75 µM, a GI50 [24] of 1330 nM and a TGI [24] of 4.83 µM. The GI50 [25] was 1040 nM, the TGI [25] was 5.52 µM and the GI50 [26] was 1110 nM. The TGI [26] was 8.33 µM, the GI50 [27] was 2970 nM and the TGI [27] was 8.32 µM. It also gave a GI50 [28] of 3150 nM, a TGI [28] of 8.5 µM and a GI50 [29] of 656 nM. For the same molecule, the TGI [29] was 3.77 µM, the GI50 [30] was 3680 nM and the TGI [30] was 12.6 µM. The GI50 [31] was 3.9 µM, the TGI [31] was 13.6 µM and the GI50 [32] was 4360 nM. It also gave a TGI [32] of 14.3 µM, a GI50 [33] of 3590 nM and a TGI [33] of 15.8 µM. It also gave a GI50 [34] of 3.57 µM, a TGI [34] of 8.6 µM and a GI50 [35] of 1070 nM. The TGI [35] was 4.52 µM, the GI50 [36] was 3760 nM and the TGI [36] was 7.8 µM. The GI50 [37] was 2540 nM, the TGI [37] was 7.88 µM and the GI50 [38] was 926 nM. The TGI [38] was 8.83 µM, the GI50 [39] was 6.18 µM and the TGI [39] was 16.3 µM. For the same molecule, the GI50 [40] was 5.58 µM, the TGI [40] was 19.1 µM and the GI50 [41] was 3400 nM. The TGI [41] was 7.95 µM, the GI50 [42] was 1770 nM and the TGI [42] was 7.34 µM. For the same molecule, the GI50 [43] was 5.18 µM, the TGI [43] was 17.6 µM and the GI50 [44] was 3550 nM. It also gave a TGI [44] of 18.6 µM, a GI50 [45] of 2500 nM and a TGI [45] of 6.51 µM. It also gave a GI50 [46] of 3500 nM, a TGI [46] of 8.62 µM and a GI50 [47] of 9.17 µM. For the same molecule, the TGI [47] was over 25 µM, the GI50 [48] was 2590 nM and the TGI [48] was 7.49 µM. For the same molecule, the GI50 [49] was 3430 nM, the TGI [49] was 7.83 µM and the GI50 [50] was 4.39 µM. The TGI [50] was 12.2 µM, the GI50 [51] was 3920 nM and the TGI [51] was 15.8 µM. For the same molecule, the GI50 [52] was 1010 nM, the TGI [52] was 4.44 µM and the GI50 [53] was 2840 nM. For the same molecule, the TGI [53] was 7.72 µM, the GI50 [54] was 4170 nM and the TGI [54] was 7.93 µM. For the same molecule, the GI50 [55] was 1180 nM, the TGI [55] was 4.46 µM and the GI50 [56] was 5020 nM. For the same molecule, the TGI [56] was 24.8 µM, the GI50 [57] was 3.36 µM and the TGI [57] was 7.67 µM. It also gave a GI50 [58] of 1920 nM and a TGI [58] of 6.44 µM.
`C#C[C@]1(O)CC[C@H]2[C@@H]3CC=C4c5nc(Nc6ccc(OC)cc6OC)sc5CC[C@]4(C)[C@H]3CC[C@@]21C` was tested, and the GI50 [1] was 1930 nM, the TGI [1] was 7.37 µM and the GI50 [2] was 504 nM. For the same molecule, the TGI [2] was 2.6 µM, the GI50 [3] was 656 nM and the TGI [3] was 4.77 µM. It also gave a GI50 [4] of 1210 nM, a TGI [4] of 2.7 µM and a GI50 [5] of 3.9 µM. For the same molecule, the TGI [5] was 15.6 µM, the GI50 [6] was 248 nM and the TGI [6] was 0.804 µM. It also gave a GI50 [7] of 655 nM, a TGI [7] of 2.85 µM and a GI50 [8] of 1.42 µM. It also gave a TGI [8] of 5.91 µM, a GI50 [9] of 262 nM and a TGI [9] of 0.608 µM. It also gave a GI50 [10] of 2530 nM, a TGI [10] of 12.2 µM and a GI50 [11] of 2060 nM. The TGI [11] was 10.2 µM, the GI50 [12] was 523 nM and the TGI [12] was 11.2 µM. It also gave a GI50 [13] of 770 nM, a TGI [13] of 4090 nM and a GI50 [14] of 2220 nM. The TGI [14] was 5.79 µM, the GI50 [15] was 2.67 µM and the TGI [15] was 15.7 µM. For the same molecule, the GI50 [16] was 1750 nM, the TGI [16] was 10.7 µM and the GI50 [17] was 525 nM. The TGI [17] was 13 µM, the GI50 [18] was 2.17 µM and the TGI [18] was 5.59 µM. For the same molecule, the GI50 [19] was 374 nM, the TGI [19] was 1.7 µM and the GI50 [20] was 2.32 µM. The TGI [20] was 10.8 µM, the GI50 [21] was 249 nM and the TGI [21] was 0.613 µM. It also gave a GI50 [22] of 3360 nM, a TGI [22] of 19.2 µM and a GI50 [23] of 4.44 µM. It also gave a TGI [23] of over 100 µM, a GI50 [24] of 1290 nM and a TGI [24] of 6.4 µM. The GI50 [25] was 1300 nM, the TGI [25] was 4.2 µM and the GI50 [26] was 978 nM. It also gave a TGI [26] of 2.65 µM, a GI50 [27] of 845 nM and a TGI [27] of 9.02 µM. For the same molecule, the GI50 [28] was 1390 nM, the TGI [28] was 5.74 µM and the GI50 [29] was 544 nM. The TGI [29] was 11 µM, the GI50 [30] was 2300 nM and the TGI [30] was 6.23 µM. For the same molecule, the GI50 [31] was 2.66 µM, the TGI [31] was 17.8 µM and the GI50 [32] was 1230 nM. The TGI [32] was 6.39 µM, the GI50 [33] was 1570 nM and the TGI [33] was 4.99 µM. It also gave a GI50 [34] of 2.65 µM, a TGI [34] of 10.3 µM and a GI50 [35] of 1550 nM. For the same molecule, the TGI [35] was 3.71 µM, the GI50 [36] was 1580 nM and the TGI [36] was 3.74 µM. The GI50 [37] was 2180 nM, the TGI [37] was 12 µM and the GI50 [38] was 460 nM. The TGI [38] was 4.69 µM, the GI50 [39] was 2.68 µM and the TGI [39] was 43.9 µM. The GI50 [40] was 1.83 µM, the TGI [40] was 7.02 µM and the GI50 [41] was 2100 nM. It also gave a TGI [41] of 7 µM, a GI50 [42] of 1370 nM and a TGI [42] of 3.53 µM. The GI50 [43] was 3.2 µM, the TGI [43] was over 100 µM and the GI50 [44] was 411 nM. The TGI [44] was 2.36 µM, the GI50 [45] was 2140 nM and the TGI [45] was 4.78 µM. For the same molecule, the GI50 [46] was 1990 nM, the TGI [46] was 7.11 µM and the GI50 [47] was 2.36 µM. The TGI [47] was 17 µM, the GI50 [48] was 1260 nM and the TGI [48] was 5.34 µM. For the same molecule, the GI50 [49] was 1730 nM, the TGI [49] was 3.26 µM and the GI50 [50] was 2.07 µM. The TGI [50] was 5.57 µM, the GI50 [51] was 712 nM and the TGI [51] was 2.7 µM. For the same molecule, the GI50 [52] was 1450 nM, the TGI [52] was 2.97 µM and the GI50 [53] was 1750 nM. For the same molecule, the TGI [53] was 6.65 µM, the GI50 [54] was 1360 nM and the TGI [54] was 5.16 µM. The GI50 [55] was 1760 nM, the TGI [55] was 5.04 µM and the GI50 [56] was 152 nM. For the same molecule, the TGI [56] was 1.23 µM, the GI50 [58] was 1760 nM and the TGI [58] was 4.39 µM.
